Usually melting point stands for the temperature, or range, at which the solid turns liquid. Usually EC50 stands for the concentration needed to bring the measured effect to its halfway point.

Structures are written as SMILES.

For series [1], the system named is Aβ. As to the kind of experiment: In vivo Aβ lowering in C57BL/6 mice (FIG. 1). More on the design: species or system mouse. The following applies: one dose at 30 mg/kg in Solutol HS 15:Ethanol:Water (15:10:75), Aβ measured at 3 hours. The source says: Practitioners will also know that similar methods can also be applied to other species such as mice (including transgenic strains such as Tg2576), guinea pig, dog and monkey.

For series [2], the target named is γ-secretase (Homo sapiens, UniProt P49768). Briefly: Aβ42 lowering in HEK-293 cells overexpressing APP (ELISA of conditioned medium). Type of series: cell-based. In general terms: In an ELISA, binding on a coated surface is turned into a signal by an enzyme label.
Description: Transfected cells overexpressing β-APP or its equivalent producing the Aβ peptide can be used to monitor the effects of synthetic compounds on the production of Aβ.
To analyze a compound's effects on the concentrations of the various products of the γ-secretase cleavage activity, the Aβ peptides, various methods known to a person skilled in the art are available.
Cells were grown to approximately 70-80% confluency subsequent to the addition of test compounds. The growth media was aspirated or removed, the cells washed, and replaced with 100 μl of compound, appropriately diluted in serum free media. The plates are then incubated for 16-18 hours at 37° C.
Conditioned Medium samples are removed for analysis/quantitation of the various Aβ peptide levels by differential ELISA's as described in accompanying instructions to the kits.

In turn, `CC(C)CC(C(=O)O)c1cc(OCC2CC2)c(-c2ccc(C(F)(F)F)cc2)cc1F` (centres unmarked) [Example 724, 2-(2-cyclopropylmethoxy-5-fluoro-4′-trifluoromethyl-biphenyl-4-yl)-4-methyl-pentanoic acid] returned a melting point of 110 to 111 °C. The compound `CC(C)CC(C(=O)O)c1cc(OCC2CC2)c(-c2ccc3nonc3c2)cc1F` (centres unmarked) [Example 754, 2-(4-(benzo[c][1,2,5]oxadiazol-5-yl)-5-(cyclopropylmethoxy)-2-fluorophenyl)-4-methylpentanoic acid] showed a melting point of 110 to 111 °C. The same measure, in the same setting: as for `CC(C)CC(C(=O)O)c1cc(-c2ccc(C(F)(F)F)cc2)c(OCC2CC2)c(C(F)(F)F)c1` (centres unmarked) [Example 1055, 2-(6-Cyclopropylmethoxy-5,4′-bis-trifluoromethyl-biphenyl-3-yl)-4-methyl-pentanoic Acid], the figure is 148 to 149 °C. As for `CC(C)c1ccc(-c2cc(C(CC3CC3)C(=O)O)cc(Cl)c2OCC(F)(F)F)cc1` (centres unmarked) [Example 1301, 2-(5-chloro-4′-isopropyl-6-(2,2,2-trifluoroethoxy)biphenyl-3-yl)-3-cyclopropylpropanoic acid], the “effect on Aβ after administration” value in series [1] is given as “desirable effect on Aβ”. As for `O=C(O)C1(c2cc(Cl)c(-c3ccc(C(F)(F)F)cc3)c(OCC(F)(F)F)c2)CCCC1` [Example 1837, 1-(2-chloro-6-(2,2,2-trifluoroethoxy)-4′-(trifluoromethyl)biphenyl-4-yl)cyclopentanecarboxylic acid], the half-maximal effective concentration (EC50) in series [2] is less than 1000 nM.

`CC(C)CC(C(=O)O)c1cc(Cl)c(-c2ccc(C(F)(F)F)cc2)c(OCC2CC2)c1` (centres unmarked) [Example 1904, 2-(2-Chloro-6-cyclopropylmethoxy-4′-trifluoromethyl-biphenyl-4-yl)-4-methyl-pentanoic acid] yielded a melting point of 115 to 116 °C. On the same count and under the same terms, as for `CC(C)CC(C(=O)O)c1cc(Cl)c(-c2ccc(Cl)cc2)c(OCC2CC2)c1` (centres unmarked) [Example 3200, 2-(2,4′-Dichloro-6-cyclopropylmethoxy-biphenyl-4-yl)-4-methyl-pentanoic acid], the figure is 52 to 53 °C; as for `CC(C)CC(C(=O)O)c1cc(Cl)c(-c2ccc(Cl)c(Cl)c2)c(OCC2CC2)c1` (centres unmarked) [Example 3201, 4-Methyl-2-(2,3′,4′-trichloro-6-cyclopropylmethoxy-biphenyl-4-yl)-pentanoic acid], 118 to 119 °C.

The values are drawn from patent publication US8664249B2, “Tetrasubstituted benzenes” (EnVivo Pharmaceuticals, Inc., priority 2007, dated 2014).
